Columns and labels:
CAOV-3 cells = assay: In vitro proliferation inhibition (CellTiter-Glo), CAOV-3; assay type: cell-based; conditions: Homo sapiens; CAOV-3, ovarian cancer, HRD-positive (low expression of ATM protein); 6-10 days culture
Source text: […]
Experimental data processing method: The luminescence signal value was used to calculate the inhibition rate. […]

[1] = tested on: human breast cancer cell line MX-1 xenograft tumor; assay: Subcutaneous xenograft tumor model of human breast cancer cell line MX-1; assay type: in vivo, BALB/c nude mice
Source text: • 1. Experimental objective: To evaluate the in vivo efficacy of the compound in a subcutaneous xenograft tumor model of human breast cancer cell line MX-1 in nude mice. • 2. Reagent • RPMI-1640 medium (22400-089, Gibco), fetal bovine serum (FBS) (10099-141C, Gibco) • Phosphate buffer (PBS, 10010-023, Gibco), HPMC (D180HB4005, Shanghai Colorcon Coating Technology Ltd.) • 0.25% Trypsin-EDTA (25200-056, Gibco), Pen Strep (P/S) (15140-122, Gibco) • 3. Experimental operations and data processing • 3.1 Animals: BALB/c nude mice, 8-12 weeks old, female, purchased from the Laboratory Animal Business Department of Shanghai Institute of Planned Parenthood Research. • 3.2 Cell culture and cell suspension preparation • a. A vial of MX-1 cells was taken from a cell bank, the cells were thawed with RPMI-1640 medium (RPMI-1640+10% FBS), and the thawed cells were placed in a cell culture flask (with the cell type, date, the name of the culture operator, etc., being marked on the wall of the flask), which were placed in a CO2 incubator for culturing (wherein the temperature of the incubator was 37° C., and the CO2 concentration was 5%). • b. The cells were passaged every three days, and after passage, the cells were placed in the CO2 incubator to continue the culture. This process was repeated until the cell number met the requirements for in vivo efficacy. • c. The cultured cells were collected, counted using a full-automatic cell counter, and resuspended with PBS on the basis of the counting results to prepare a cell suspension (at a density of 3×10^7/mL), which was then placed in an ice box for later use. • 3.3 Cell inoculation • a. Before inoculation, the nude mice were marked with disposable universal ear tags for mice and rats. • b. At the time of inoculation, the cell suspension was mixed uniformly, 0.1-1 mL of the cell suspension was aspirated using a 1 mL syringe with air bubbles expelled, and the syringe was then placed on an ice bag for later use. • c. The nude mouse was secured with the left hand, the right dorsal area near the right shoulder (inoculation site) of the nude mouse was disinfected with a 75% alcohol cotton ball, and inoculation was initiated after 30 seconds. • d. The experimental nude mice were inoculated sequentially (0.1 mL of cell suspension per mouse). • 3.4 Tumor measurement, grouping and administration in tumor-bearing mice • a. Tumor was measured on days 10-18 after inoculation depending on the tumor growth, and the tumor size was calculated.
tumor volume (mm^3)=length (mm)×width (mm)×width (mm)/2 Tumor volume calculation: • b. According to the body weight of tumor-bearing mice and the size of the tumor, the mice were grouped by random grouping. • c. According to the grouping results, the test drug was started to be administered (administration method: oral administration; administration volume: 10 mL/kg; administration frequency: once/day; administration cycle: 21 days; vehicle: 0.5% HPMC). • d. Tumor measurement and weighing were performed twice a week after starting administration of test drugs. • e. The animals were euthanized at the end of the experiment. • f. Data processing was performed using software such as GraphPad Prism. The tumor inhibitory efficacy of the compound was evaluated by TGI (%) and ΔT/ΔC (%). ΔT/ΔC (%)=(T−T0)/(C−C0)×100, where T and C are the tumor volumes of the treatment group and the vehicle control group at the end of the experiment, respectively, and T0 and C0 are the tumor volumes of the treatment group and the vehicle control group at the beginning of the experiment, respectively. Tumor growth inhibition (TGI) (%)=100−ΔT/ΔC (%). Tumor growth inhibition (TGI) (%)=100−(T−T0)/T0×100 when tumor regression occurs • 4. Experimental conclusion

[2] = MX-1, 100 mg/kg oral once/day, Day 21
[3] = MX-1, 3 mg/kg oral once/day, Day 21

| SMILES | IC50 (CAOV-3 cells) [nM] | Tumor volume (Mean ± SEM) ([1]; MX-1, 100 mg/kg oral once/day, Day 0) [mm^3] | T/C [1, 2] [%] | TGI [1, 2] [%] | Tumor volume (Mean ± SEM) [1, 2] [mm^3] | Tumor volume (Mean ± SEM) ([1]; MX-1, 3 mg/kg oral once/day, Day 0) [mm^3] | T/C [1, 3] [%] | TGI [1, 3] [%] | Tumor volume (Mean ± SEM) [1, 3] [mm^3] |
| --- | --- | --- | --- | --- | --- | --- | --- | --- | --- |
| O=C(c1cc(Cc2n[nH]c(=O)c3ccccc23)ccc1F)N1CCN(C(=O)C2CC2)CC1 [Olaparib] | 151 ± 18 | 122 ± 14 | 88.08 | 12.73 | 1656 ± 289 | – | – | – | – |
| CCc1cc2ncc(CN3CCN(c4ccc(C(=O)NC)nc4)CC3)cc2[nH]c1=O [AZD5305] | 4 ± 0.8 | – | – | – | – | 122 ± 17 | 34.13 | 70.43 | 642 ± 132 |

Source: patent US20260256756A1, “USE OF PIPERIDINE ALKENE COMPOUND IN PREPARATION OF DRUG FOR TREATING CANCER” (JIANGSU HANSOH PHARMACEUTICAL GROUP CO., LTD., priority 2023, published 2026)
